Columns and labels:
primary microglia = test: Microglial viability, WST-1 metabolic activity; format: cell-based, mouse; settings: up to 50 μM Fasudil
Procedure: Microglial viability was assayed as metabolic activity using WST-1 reagent (4-[3-(4-iodophenyl)-2-(4-nitrophenyl)-2H-5-tetrazolio]-1,3-benzene disulfonate), based on the enzymatic cleavage of WST tetrazolium salt to formazan by the succinate-tetrazolium reductase system of the respiratory chain of intact mitochondria. The assay was performed according to the instructions of the manufacturer (Roche Applied Science, Mannheim, Germany). After 3 h of incubation, the resulting color reaction was measured at 450 nm (with 655 nm as the reference wavelength) in a microplate reader (Bio-Rad, Munich, Germany).

[1] = test system: SOD1 G93A mouse model of ALS; test: Rotarod test (motor coordination), time to failure of 180 s; format: in vivo
Description: From a patient's point of view overall survival is not the only parameter of a successful therapy. Many recent therapeutic studies in humans rather evaluate an increased time with improved quality of life. An improved motor function could be one parameter that is relevant for the quality of daily life and therefore the inventors chose two different tests to monitor motor function in the present animal model. The rotarod test evaluates fine motor coordination and is a very sensitive test for the ability to move on an unstable underground. Evaluating motor coordination by subjecting the animals to the rotarod test, the presymptomatic female treatment group failed later in the task to reach a total running time of 180 s (122.5 days) in comparison to the vehicle-treated group (114.2 days).

[2] = test system: spinal cord astroglia of SOD1 G93A mice; test: GFAP positive astrocytes in ventral horn of lumbar spinal cord (astrogliosis); format: in vivo, mouse; settings: for numbers of GFAP positive astroglia: time of death, presymptomatic
Procedure: After deep anaesthesia, mice were transcardially perfused with PBS solution followed by 4% paraformaldehyde. Spinal cords, sciatic nerves and gastrocnemius muscles were removed. Spinal cords and gastrocnemius muscles were then postfixed for 2 h in 4% paraformaldehyde. Thereafter, the tissue was dehydrated in 30% sucrose overnight and kept at −20° C. until further processing. Coronal sections of the lumbar spinal cord (L3-L6) (20 μm) and horizontal sections of the tibial muscle (35 μm) were prepared using a Leica Kryostat and collected on gelatine-coated glass slides.
Spinal cord sections selected for immunohistochemical processing were first rehydrated. Then antigen-retrieval was performed for 4 h in TBS at 60° C. for later GFAP or Iba1 labeling and for 30 min in sodium citrate (pH 9.0) at 80° C. for later ChAT labeling. After washing for one time in PBS the sections were incubated at room temperature either in PBS and 10% of normal goat serum for later GFAP labeling or in PBS and 5% normal donkey serum for later ChAT labeling to block unspecific binding. The primary antibodies (anti-ChAT 1:100, AB144 P, Millipore; anti-GFAP 1:200, DAKO; anti-Iba1 1:500, WAKO, Osaka, Japan) were applied at 4° C. for one night for GFAP and for three nights for ChAT. The secondary antibodies (Cy3 anti-goat or Cy2/Dylight anti rabbit; both Dianova) were applied on separate sections 1:300 for 1 h at room temperature. Then a nuclear counter-stain with DAPI (4,6-diamidino-2-phenylindole) (Sigma-Aldrich) was performed before mounting in Moviol (Hoechst, Frankfurt, Germany).
Astrogliosis and microgliosis were evaluated by the quantification of GFAP or Iba1 positive cells in the ventral horn of lumbar spinal cord sections, respectively. Again, the area of the ventral horn was defined and GFAP or Iba1 positive cells were manually counted. In the d50 treatment group analyzed at death, a total of 20 mice was counted from the vehicle (3 male, 3 female), Fas30 (3 male, 3 female), Fas100 (3 male, 3 female) and wildtype (1 male, 1 female) group. In the d50 treatment group analyzed at d100, a total of 20 mice was counted from the vehicle (3 male, 3 female), Fas30 (3 male, 3 female), Fas100 (3 male, 3 female) and wildtype (1 male, 1 female) group.
Reactive astrogliosis represents another parameter in the evaluation of histologic manifestation of ALS disease. In human ALS patients, the clinical progression of this neurodegenerative disease seems to be associated with changes in astrocytic cell infiltration in the spinal cord. Therefore, the inventors evaluated the extent of astrogliosis in the lumbar spinal cord by counting the number of GFAP positive astroglial cells in the ventral horn and normalized values to area (FIG. 12).

[3] = test system: spinal cord motoneurons of SOD1 G93A mice; test: ChAT positive motoneurons in lumbar spinal cord sections; format: in vivo, mouse; settings: for ChAT cell numbers per lumbar spinal cord section / motoneuron count: time of death; for ChAT cell numbers per lumbar spinal cord section: vehicle 6.1±0.95
Procedure: After deep anaesthesia, mice were transcardially perfused with PBS solution followed by 4% paraformaldehyde. Spinal cords, sciatic nerves and gastrocnemius muscles were removed. Spinal cords and gastrocnemius muscles were then postfixed for 2 h in 4% paraformaldehyde. Thereafter, the tissue was dehydrated in 30% sucrose overnight and kept at -20° C. until further processing. Coronal sections of the lumbar spinal cord (L3-L6) (20 μm) and horizontal sections of the tibial muscle (35 μm) were prepared using a Leica Kryostat and collected on gelatine-coated glass slides. Spinal cord sections selected for immunohistochemical processing were first rehydrated. Then antigen-retrieval was performed for 4 h in TBS at 60° C. for later GFAP or Iba1 labeling and for 30 min in sodium citrate (pH 9.0) at 80° C. for later ChAT labeling. […] The primary antibodies (anti-ChAT 1:100, AB144 P, Millipore; anti-GFAP 1:200, DAKO; anti-Iba1 1:500, WAKO, Osaka, Japan) were applied at 4° C. for one night for GFAP and for three nights for ChAT. The secondary antibodies (Cy3 anti-goat or Cy2/Dylight anti rabbit; both Dianova) were applied on separate sections 1:300 for 1 h at room temperature. […] In order to quantify motoneuron numbers in coronal cryosections from the lumbar spinal (L3-L6) cord first the area of the ventral horn was defined according to the criteria from Kong et al. (Kong and Xu 1998). […] At least five sections per mouse spinal cord that were 100 μm apart over a length of at least 500 μm isolated from the lumbar spinal cord were counted. In the d50 treatment group analyzed at death, a total of 20 mice was counted from the vehicle (3 male, 3 female), Fas30 (3 male, 3 female), Fas100 (3 male, 3 female) and wildtype (1 male, 1 female) group. In the […] treatment group analyzed at death, a total of 20 mice was counted from the vehicle (3 male, 3 female), Fas30 (3 male, 3 female), and Fas100 (3 male, 3 female) and wildtype (1 male, 1 female) group. In the d50 treatment group analyzed at […], a total of 20 mice was counted from the vehicle (3 male, 3 female), Fas30 (3 male, 3 female), Fas100 (3 male, 3 female) and wildtype (1 male, 1 female) group.

[4] = day 100, female, presymptomatic Fas30 vs transgenic vehicle

Structure (SMILES): O=S(=O)(c1cccc2cnccc12)N1CCCNCC1 [Fasudil, 1-(5-isoquinolinesulfonyl)homopiperazine]
- microglial metabolic activity (WST-1) (primary microglia): no reduction in metabolic activity
- rotarod performance ([1]; male, presymptomatic Fas30): slight non-significant trend to improved performance
- time to failure to reach 180 s rotarod running time ([1]; presymptomatic female treatment group, vehicle 114.2 days): 122.5 days
- rotarod performance ([1]; symptomatic treatment): not able to improve rotarod performances
- GFAP cell number [2, 4]: significantly reduced
- numbers of GFAP positive astroglia ([2]; Fas30 female, vehicle female 28.91±4.7): 31.6±5.9 per 0.2 mm^2
- numbers of GFAP positive astroglia ([2]; Fas30 male, vehicle male 31.3±4.7): 38.2±4.4 per 0.2 mm^2
- numbers of GFAP positive astroglia ([2]; Fas100 female, vehicle female 28.91±4.7): 27.9±4.0 per 0.2 mm^2
- numbers of GFAP positive astroglia ([2]; Fas100 male, vehicle male 31.3±4.7): 29.24±4.5 per 0.2 mm^2
- motoneuron numbers differentiated by cell body size ([3]; day 100, female, Fas30 vs transgenic vehicle, trend not significant): more motoneurons in all size groups
- cumulative cell body size per anterior horn section ([3]; day 100, female, Fasudil vs vehicle): defined trend to be larger
- numbers of ChAT positive motoneurons [3, 4]: strong trend of elevated numbers of motoneurons
- ChAT cell numbers per lumbar spinal cord section ([3]; female, presymptomatic F100 (high dose)): 7.3±1.00
- ChAT cell numbers per lumbar spinal cord section ([3]; female, presymptomatic Fas30): 8.6±0.36
- motoneuron count ([3]; female, symptomatic treatment groups): did not differ
- motoneuron count ([3]; male, presymptomatic Fas30 or Fas100): did not profit
- motoneuron count ([3]; male, symptomatic Fas30 vs vehicle): higher motoneuron numbers
